{"source": "patent US20240082125A1", "about": "“USE OF A SHORT CHAIN FATTY ACID AS ANTIDANDRUFF AGENT” (NANYANG TECHNOLOGICAL UNIVERSITY, priority 2020, published 2024)", "key": {"[1]": {"system": "M. restricta ATCC MYA-4611", "assay": "M. restricta growth assay, total cell numbers by SYTO9 fluorescence", "assay_type": "cell-based, Malassezia restricta", "experimental": "(§1) M. restricta ATCC MYA-4611, S. epidermidis ATCC 12228, and C. acnes ATCC 6919 were purchased from ATCC. M. restricta was routinely cultured in modified Dixon (MD) medium (pH 6), composed of 36 g of Malt extract (Sigma 70167), 20 g of Dessicated Oxbile (Sigma 70168), 6 g of Bacto™ Peptone (BD 211677), 1% (v/v) Tween 40 (Sigma P1504), 0.2% (v/v) Oleic Acid (Fluka 75096), and 0.2% (v/v) Glycerol (Promega H5433) in 1 liter of dH2O. C. acnes and S. epidermidis were cultured in modified brain heart infusion (MBHI) medium (pH 7), containing 37 g of BHI base (Accumedia 7116B), 0.4% (v/v) of Tween-40 (Sigma P1504), 0.2% (v/v) of Oleic acid (Fluka 75096), and 0.2% (v/v) of Glycerol (Promega H5433) in 1 liter of dH2O. M. restricta and S. epidermidis were routinely grown under aerobic conditions, shaken at 200 rpm, and C. acnes was grown under anaerobic conditions. All organisms were grown at 33° C. Wherever required, media was supplemented with: sodium acetate (CH3COOH, Sigma Ref. 32319), sodium propionate ([…], Sigma Ref. P1880), sodium butyrate (CH3(CH2)2COOH, Sigma Ref. 303410), valeric acid (CH3(CH2)3COOH, Fluka Ref. 75054). For valeric acid, the pH in modified cell media was neutralized with NaOH (Sodium hydroxide, Sigma 283060).\nM. restricta cells from 1 ml of the culture were harvested by centrifugation at 10,000×g for 5 minutes at room temperature. Cells were washed once, pelleted, and re-suspended in 0.9% NaCl solution. Equal volumes of the above cell suspension and SYTO 9 working stock (3 ul SYTO 9 component of the Live/Dead BacLight bacterial viability kit, ThermoFisher Scientific, L7012, diluted in 1 ml of 0.9% NaCl solution) were mixed well, incubated in dark for 10 minutes, and fluorescent intensity unit was measured in a Tecan microplate reader with excitation/emission wavelengths of 485/530 nm. A standard for correlation of fluorescence units and concentration was prepared using a fluorimeter and hemocytometer under a light microscope. This standard curve was used to calculate the total cell numbers.\n(§2) M. restricta cells stored as glycerol stocks (30% glycerol in MD medium) were revived by plating on MD agar plates and incubated for 2-3 days at 33° C. A pre-culture was made from the lawn of cells grown on the agar plate. Cells from % of the plate was scrapped off, homogenized after suspending in 70 ml of MD medium in a 250 ml baffled erlenmeyer flask and incubated for 24 hours at 33° C. at 200 rpm. For experiments, 10^7 cell/ml was inoculated in fresh MD medium with or without the short chain fatty acids. Growth was monitored by measuring the cell density with SYTO 9 for up to 24 hours or 96 hours. C. acnes and S. epidermidis were inoculated into MBHI medium at starting cell density of OD600 0.05 and 0.25, respectively. Bacterial growth was measured by plating the serially diluted cultures on Brain Heart Infusion agar plates at different time points and colonies were counted after 72 hours for C. acnes and 24 hours for S. epidermidis.\nM. restricta ATCC MYA-4611, S. epidermidis ATCC 12228 and C. acnes ATCC 6919 were purchased from ATCC. M. restricta were routinely cultured in Modified Dixon (MD) medium (pH 6), composed of 36 g of Malt extract (Sigma 70167), 20 g of Dessicated Oxbile (Sigma 70168), 6 g of Bacto™ Peptone (BD 211677), 1% (v/v) Tween 40 (Sigma P1504), 0.2% (v/v) Oleic Acid (Fluka 75096), and 0.2% (v/v) Glycerol (Promega H5433) in 1 liter of dH2O. C. acnes and S. epidermidis were cultured in modified brain heart infusion (MBHI) medium (pH 7), containing 37 g of BHI base (Accumedia 7116B), 0.4% (v/v) of Tween-40 (Sigma P1504), 0.2% (v/v) of Oleic acid (Fluka 75096), and 0.2% (v/v) of Glycerol (Promega H5433) in 1 liter of dH2O. M. restricta and S. epidermidis were routinely grown under aerobic conditions, shaken at 200 rpm, and C. acnes was grown under anaerobic conditions. All organisms were grown at 33° C."}, "C. acnes ATCC 6919 [2]": {"system": "C. acnes ATCC 6919", "assay": "C. acnes growth assay, colony forming units", "assay_type": "cell-based, Cutibacterium acnes", "experimental": "as §1, §2\n(§3) Bacterial growth was quantified by plating the serially diluted cultures on Brain Heart Infusion agar plates at different time points and colonies were counted after 72 hours for C. acnes and 24 hours for Staphylococcus sp.\n(§4) M. restricta ATCC MYA-4611, S. epidermidis ATCC 12228 and C. acnes ATCC 6919 were purchased from ATCC. M. restricta were routinely cultured in Modified Dixon (MD) medium (pH 6), composed of 36 g of Malt extract (Sigma 70167), 20 g of Dessicated Oxbile (Sigma 70168), 6 g of Bacto™ Peptone (BD 211677), 1% (v/v) Tween 40 (Sigma P1504), 0.2% (v/v) Oleic Acid (Fluka 75096), and 0.2% (v/v) Glycerol (Promega H5433) in 1 liter of dH2O. C. acnes and S. epidermidis were cultured in modified brain heart infusion (MBHI) medium (pH 7), containing 37 g of BHI base (Accumedia 7116B), 0.4% (v/v) of Tween-40 (Sigma P1504), 0.2% (v/v) of Oleic acid (Fluka 75096), and 0.2% (v/v) of Glycerol (Promega H5433) in 1 liter of dH2O. M. restricta and S. epidermidis were routinely grown under aerobic conditions, shaken at 200 rpm, and C. acnes was grown under anaerobic conditions. All organisms were grown at 33° C. Wherever required, media was supplemented with 50 mM of: sodium propionate ([…], Sigma Ref. P1880), sodium butyrate (CH3(CH2)2COOH, Sigma Ref. 303410), valeric acid (CH3(CH2)3COOH, Fluka Ref. 75054). For valeric acid, the pH in modified cell media was neutralized with NaOH (Sodium hydroxide, Sigma 283060).\n(§5) M. restricta cells stored as glycerol stocks (30% glycerol in MD medium) were revived by plating on MD agar plates and incubated for 2-3 days at 33° C. A pre-culture was made from the lawn of cells grown on the agar plate."}, "[3]": {"system": "S. epidermidis ATCC 12228", "assay": "S. epidermidis growth assay, colony forming units", "assay_type": "cell-based, Staphylococcus epidermidis", "experimental": "as §1, §2, §3, §4, §5"}, "C. acnes ATCC 6919 [4]": {"system": "C. acnes ATCC 6919", "assay": "Co-culture assay: C. acnes growth with S. epidermidis biofilm in aerobic condition", "assay_type": "cell-based, Cutibacterium acnes", "conditions": "monitored 24, 48 and 72 hours, FIG. 8", "experimental": "S. epidermidis ATCC 12228, and C. acnes ATCC 6919 were purchased from ATCC. C. acnes and S. epidermidis were cultured in modified brain heart infusion (MBHI) medium (pH 7), containing 37 g of BHI base (Accumedia 7116B), 0.4% (v/v) of Tween-40 (Sigma P1504), 0.2% (v/v) of Oleic acid (Fluka 75096), and 0.2% (v/v) of Glycerol (Promega H5433) in 1 liter of dH2O. S. epidermidis was routinely grown under aerobic conditions, shaken at 200 rpm, and C. acnes was grown under anaerobic conditions. All organisms were grown at 33° C. Wherever required, media was supplemented with: sodium propionate ([…], Sigma Ref. P1880),\nC. acnes and S. epidermidis were inoculated in MBHI media at starting cell density of OD600 0.05 and 0.25 respectively. Bacterial growth was measured by plating the serially diluted cultures on Brain Heart Infusion agar plates at different time points and colonies were counted after 72 hours for C. acnes and 24 hours for S. epidermidis.\nFor co-cultures, equal volumes of exponentially growing cells of the two species were mixed at cell density of 10^5 cells per ml in 24-well glass bottom plates. Growth of each species in co-cultures was quantified by plating the culture suspension on agar medium. […]"}}, "note": "Values joined by “and” are separate entries in the source; they are usually repeats but may differ in a detail not shown here. Equal values may be shown once."}
{"smiles": "CCC(=O)[O-].[Na+]", "note": "[NaP, sodium propionate]", "values": [{"measurement": "growth of Malassezia restricta", "setting": "[1]; 30 mM, MD medium pH 6, FIG. 1", "result": "completely inhibit"}, {"measurement": "M. restricta (log10 total cell counts)", "setting": "[1]; 50 mM, after 72 hours, SYTO9, starting density 1×10^7 cells/ml, replicates #1-#3", "result": "6.95 log10 total cell counts and 6.79 log10 total cell counts and 6.82 log10 total cell counts"}, {"measurement": "growth of C. acnes", "setting": "C. acnes ATCC 6919 [2]; 30 mM, MBHI medium pH 7, anaerobic, FIG. 2", "result": "do not affect"}, {"measurement": "C. acnes (log10 CFUs/ml)", "setting": "C. acnes ATCC 6919 [2]; 50 mM, after 72 hours, replicates #1-#3", "result": "7.82 log10 CFUs/ml and 8.34 log10 CFUs/ml and 8.29 log10 CFUs/ml"}, {"measurement": "growth of S. epidermidis", "setting": "[3]; 30 mM, MBHI medium pH 7, aerobic, FIG. 3", "result": "do not affect"}, {"measurement": "S. epidermidis (log10 CFUs/ml)", "setting": "[3]; 50 mM, after 24 hours, replicates #1-#3", "result": "9.16 log10 CFUs/ml and 8.82 log10 CFUs/ml and 9.00 log10 CFUs/ml"}, {"measurement": "C. acnes growth in co-culture with S. epidermidis", "setting": "C. acnes ATCC 6919 [4]", "result": "augmented"}]}
